Laboratory results from patent publication US20050014824A1, “Pigment” (priority 2001, published 2005).

Assays:
[1] = system: enzymes from salmon intestines; assay: hydrolysis of astaxanthin omega-3 fatty acid diester by enzyme mixture from salmon intestines, optical isomer distribution by HPLC of dicamphanates; assay type: in vitro ADME, Salmo salar
Method: As described in Example 1 below, hydrolysis experiments were performed with a diester of synthetic astaxanthin with omega-3 fatty acids and a crude enzyme preparation from salmon intestines in the same way as described before (NO-309386). The reaction products were analysed with regard to stereoisomer composition.
A diester of astaxanthin was prepared by conventional chemical synthesis from commercially obtained synthetic astaxanthin and an omega-3 fatty acid concentrate containing more than 90% omega-3 fatty acids, mainly EPA (eicosapentaenoic acid) and DHA (docosahexaenoic acid). The astaxanthin used had been prepared by chemical synthesis, and the distribution of the optical isomers (3R,3′R), meso and (3S,3′S) was 25.9:50.2:23.9, respectively, determined as described for the diol fraction.
The starting astaxanthin diester was treated with a freshly prepared enzyme mixture from the intestines of recently fed salmon (Salmo salar) for 48 hours. The pigment was then separated into three fractions by preparative thin-layer chromatography; a diol fraction with both hydroxyl groups hydrolysed, a monoester fraction with one hydroxyl group hydrolysed, and a remaining diester fraction. The astaxanthin in the diol fraction was converted into the corresponding diesters of (−)-camphanic acid by reaction with (−)-camphanoyl chloride, and the distribution of astaxanthin optical isomers were determined by high-performance liquid chromatography (HPLC) of the dicamphanates. The astaxanthin in the monoester fraction was first converted to diol in a hydrolysis reaction catalysed by the enzyme cholesterol esterase and subsequently treated with (−)-camphanic acid and analysed as described above. Attempts to convert the astaxanthin in the remaining diester fraction to diol using cholesterol esterase were not successful, as complete conversion was not obtained. The distribution of optical isomers of astaxanthin in the remaining diester fraction was therefore not determined.

[2] = system: salmonid fishes; settings: cited from earlier work
[3] = pigment fraction, enzyme treatment 48 hours, starting diester = before treatment

For CC1=C(/C=C/C(C)=C/C=C/C(C)=C/C=C/C=C(C)/C=C/C=C(C)/C=C/C2=C(C)C(=O)[C@@H](O)CC2(C)C)C(C)(C)C[C@H](O)C1=O [Diol (after enzyme treatment)], the “predominant optical isomer of astaxanthin in the fraction (in words)” value ([1]; after enzyme treatment) was “almost exclusively the (3R,3′R)-configuration, with traces of the meso-form”, the “distribution of astaxanthin optical isomers: (3R,3′R)” value [1, 3] was 94.6 and the “distribution of astaxanthin optical isomers: meso” value [1, 3] was 5.4.
In the case of CC1=C(/C=C/C(C)=C/C=C/C(C)=C/C=C/C=C(C)/C=C/C=C(C)/C=C/C2=C(C)C(=O)[C@@H](O)CC2(C)C)C(C)(C)C[C@H](O)C1=O [astaxanthin], the “absorption and deposition in the flesh of the optical isomers” value ([2]; in vivo) is given as “equally well absorbed and deposited”.
In the case of CCCCCCCCCCCCCCCC(=O)O[C@H]1CC(C)(C)C(/C=C/C(C)=C/C=C/C(C)=C/C=C/C=C(C)/C=C/C=C(C)/C=C/C2=C(C)C(=O)[C@@H](OC(=O)CCCCCCCCCCCCCCC)CC2(C)C)=C(C)C1=O [dipalmitate, of (3R,3′R)-astaxanthin], the utilisation by salmonids ([2]; diet containing the ester form, compared with dipalmitate of (3S,3′S)-astaxanthin) is listed as “better than dipalmitate of (3S,3′S)-astaxanthin”.
